Measured values reported in patent US20160177259A1, “[…]” (Evonik Degussa GmbH, priority 2014, published 2016).

Test system: Clostridium ljungdahlii
Assay: Autotrophic production in carbonate buffer on synthesis gas with 0.4 g/l or no L-cysteine HCl (Example 2)
Format: cell-based
Settings: for Acetate (NMR) / Ethanol (NMR) / OD600 / Δp: reactor 2, 0.4 g/L L-Cysteine-HCl
Experimental: For the production, anaerobic carbonate buffer (adjusted with KOH 1.87 g/L) was used.
Identical autotrophic productions were carried out in 500 mL septum bottles with 100 mL of carbonate carried out in a shaking water bath shaker (open Innova 3100 by New Brunswick Scientific) at 100 min^−1. The productions were carried out at 37° C. with manual control of the pH. Once the pH dropped below 5.5, KOH was metered from a stock solution of 187 g/L. In the present experiments the pH in both reactors at points in time of 50.3 h and 73.3 h were taken and corrected by the addition of each 1.87 g/L KOH manually.
The reactors were inoculated with a synthesis gas mixture of 67% H2 and 33% CO2 pressurized with an overpressure of 0.8 bar. To replenish the consumed gas, the gas atmosphere was completely replaced once a day in the headspace of the reactors and again pressured to 0.8 bars.
The reactor 1 contained a concentration of L-cysteine HCl of 0 g/L, and reactor 2 a concentration of L-cysteine HCl of 0.4 g/L.
The reactors started with autotrophic cells at an OD of 0.2. The pre-culture was carried out continuously in a 1 L bottle with 500 ml of complex medium. The complex medium comprised of 1 g/l NH4Cl, 0.1 g/l KCl, 0.2 g/l MgSO4×7 H2O, 0.8 g/l NaCl, 0.1 g/l KH2PO4, 20 mg/l CaCl2×2 H2O, 20 g/l MES, 1 g/l yeast extract, 0.4 g/L L-cysteine HCl, 20 mg/l nitrilotriacetic acid, 10 mg/l MnSO4 H2O x, 8 mg/l (NH4)2Fe(SO4)2×6 H2O, 2 mg/L CoCl2×6 H2O, 2 mg/l ZnSO4×7 H2O, 0.2 mg/l CuCl2×2H2O, 0.2 mg/l Na2MoO4×2 H2O, 0.2 mg/l NiCl2×6 H2O, 0.2 mg/l Na2SeO4, 0.2 mg/l Na2WO4×2 H2O, 20 μg/l d-biotin, 20 μg/L folic acid, 100 μg/l pyridoxine HCl, 50 μg/l thiamine-HCl×H2O. 50 μg/l of riboflavin, 50 μg/l nicotinic acid, 50 μg/l Ca-pantothenate, 1 μg/L of vitamin B12, 50 μg/l p-aminobenzoate, 50 μg/l lipoic acid. The gassing of the culture with synthesis gas (67% H2, 33% CO2) was carried out continuously at a flow rate of 3 l/h over a filter with pore size of 10 microns. The cells were in late log phase of growth at an OD of 0.23 anaerobically centrifuged (4500 rpm, 4300 g, 20° C., 10 min). The supernatant was discarded and the cell pellet resuspended in 10 ml carbonate buffer. The prepared cells were then used to inoculate the actual experiments.
When sampling each 5 ml sample was removed for determination of 0D600, pH and the product range. The determination of the product concentration was performed by quantitative ^1H-NMR spectroscopy. As an internal quantification standard sodium trimethylsilylpropionate (T(M)SP) was used.

**Q.** Which results are given for `Cl.N[C@@H](CS)C(=O)O` [L-Cysteine-HCl, L-cysteine hydrochloride]?
**A.** concentrations of ethanol and acetate formed (0.4 g/L compared with no L-cysteine-HCl, end of 98.8 h reaction time): higher; Acetate (NMR) (0.0 h): 15 mg/L; Ethanol (NMR) (0.0 h): 5 mg/L; OD600 (0.0 h): 0.18; Acetate (NMR) (26.0 h): 1714 mg/L; Ethanol (NMR) (26.0 h): 21 mg/L; OD600 (26.0 h): 0.18; Δp (26.0 h): 0.6 bar; Acetate (NMR) (50.3 h): 2471 mg/L; Ethanol (NMR) (50.3 h): 91 mg/L; OD600 (50.3 h): 0.19; Δp (50.3 h): 0.5 bar; OD600 (74.3 h): 0.18; Δp (74.3 h): 0.4 bar; Acetate (NMR) (98.8 h): 3366 mg/L; Ethanol (NMR) (98.8 h): 84 mg/L; OD600 (98.8 h): 0.18; Δp (98.8 h): 0.2 bar; gas consumption (reactor 2 with 0.4 g/L compared with 0 g/L L-cysteine-HCl, over 98.8 h): higher
